Data from patent publication US20220402950A1, “SUBSTITUTED BENZIMIDAZOLES AS PAD4 INHIBITORS” (BRISTOL-MYERS SQUIBB COMPANY, priority 2018, published 2022).

biological target: human PAD4 (hPAD4) (Homo sapiens, UniProt Q9UM07); assay: RFMS Human PAD4 Functional Assay; type: biochemical; details: hPAD4 RFMS IC50, human PAD4, rapid-fire mass spectrum (RFMS) assay; 5 nM hPAD4, 250 μM BAEE
How it was run: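 RapidFire ESI-MS quantification, normalised to a modified-citrulline internal standard, after phenyl glyoxal (final 4 mM) derivatisation of the TCA-quenched reaction. The enzyme (10 nM) sat 30 min with compound (up to 50 μM final) before 500 μM BAEE (as added) started a 90 min, 37 °C reaction. Buffer: HEPES pH 7.5, 50 μM calcium, 5 μM TPEN.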

human PAD4 (hPAD4), sequence (Q9UM07 whole entry): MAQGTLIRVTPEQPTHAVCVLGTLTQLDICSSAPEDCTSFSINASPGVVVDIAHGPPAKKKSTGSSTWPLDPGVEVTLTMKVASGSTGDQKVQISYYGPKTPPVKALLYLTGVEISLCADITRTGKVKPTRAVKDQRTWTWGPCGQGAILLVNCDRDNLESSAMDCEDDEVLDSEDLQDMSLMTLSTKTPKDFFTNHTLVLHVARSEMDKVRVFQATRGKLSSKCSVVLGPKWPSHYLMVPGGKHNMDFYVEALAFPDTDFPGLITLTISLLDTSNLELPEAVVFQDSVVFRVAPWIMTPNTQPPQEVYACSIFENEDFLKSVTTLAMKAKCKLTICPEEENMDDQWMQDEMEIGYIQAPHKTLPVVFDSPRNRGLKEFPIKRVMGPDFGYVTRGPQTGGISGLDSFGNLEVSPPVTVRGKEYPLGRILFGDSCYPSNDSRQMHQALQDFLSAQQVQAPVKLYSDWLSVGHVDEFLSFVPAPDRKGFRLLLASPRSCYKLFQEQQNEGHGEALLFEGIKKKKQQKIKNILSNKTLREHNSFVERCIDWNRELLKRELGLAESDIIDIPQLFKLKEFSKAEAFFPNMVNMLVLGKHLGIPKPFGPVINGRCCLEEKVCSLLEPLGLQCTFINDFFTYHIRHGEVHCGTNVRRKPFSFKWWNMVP

SMILES | IC50
COc1cc(C(=O)N2C[C@H]3CC[C@@H]2[C@@H]3N)cc2nc(-c3cc4cccc(-c5ccc(O)cc5C#N)c4n3CC3CC3)n(C)c12 [Example 193, 2-(2-(5-((1R,4R,7R)-7-amino-2-azabicyclo[2.2.1]heptane-2-carbonyl)-7-methoxy-1-methyl-1H-benzo[d]imidazol-2-yl)-1-(cyclopropylmethyl)-1H-indol-7-yl)-5-hydroxybenzonitrile] | 33 nM
COc1cc(C(=O)N2C[C@H]3CC[C@@H]2[C@@H]3N)cc2nc(-c3cc4cccc(C5CN(C(C)=O)C5)c4n3C)n(Cc3cnn(C)c3)c12 [Example 214, 1-(3-(2-(5-((1R,4R,7R)-7-amino-2-azabicyclo[2.2.1]heptane-2-carbonyl)-7-methoxy-1-((1-methyl-1H-pyrazol-4-yl)methyl)-1H-benzo[d]imidazol-2-yl)-1-methyl-1H-indol-7-yl)azetidin-1-yl)ethan-1-one] | 155 nM
COc1cc(C(=O)N2C[C@H]3CC[C@@H]2[C@@H]3N)cc2nc(-c3cc4cccc(-c5ccc6c(c5)CNC6=O)c4n3CC3CC3)n(C)c12 [Example 103, 5-(2-{5-[(1R,4R,7R)-7-amino-2-azabicyclo[2.2.1]heptane-2-carbonyl]-7-methoxy-1-methyl-1H-1,3-benzodiazol-2-yl}-1-(cyclopropylmethyl)-1H-indol-7-yl)-2,3-dihydro-1H-isoindol-1-one] | 25 nM
COc1cc(C(=O)N2C[C@H]3CC[C@@H]2[C@@H]3N)cc2nc(-c3cc4cccc(-c5ccc(O)c(F)c5)c4n3CC3CC3)n(C)c12 [Example 90, 4-(2-{5-[(1R,4R,7R)-7-amino-2-azabicyclo[2.2.1]heptane-2-carbonyl]-7-methoxy-1-methyl-1H-1,3-benzodiazol-2-yl}-1-(cyclopropylmethyl)-1H-indol-7-yl)-2-fluorophenol] | 45 nM
COc1cc(C(=O)N2C[C@H]3CC[C@@H]2[C@@H]3N)cc2nc(-c3cc4cccc(C5CN(C(C)=O)C5)c4n3CC3CC3)n(Cc3cnn(C)c3)c12 [Example 210, 1-(3-(2-(5-((1R,4R,7R)-7-amino-2-azabicyclo[2.2.1]heptane-2-carbonyl)-7-methoxy-1-((1-methyl-1H-pyrazol-4-yl)methyl)-1H-benzo[d]imidazol-2-yl)-1-(cyclopropylmethyl)-1H-indol-7-yl)azetidin-1-yl)ethan-1-one] | 18 nM
COC(=O)N1CCC(c2cccc3cc(-c4nc5cc(C(=O)N6C[C@H]7CC[C@@H]6[C@@H]7N)cc(OC)c5n4C)n(CC4CC4)c23)CC1 [Example 217, methyl 4-(2-(5-((1R,4R,7R)-7-amino-2-azabicyclo[2.2.1]heptane-2-carbonyl)-7-methoxy-1-methyl-1H-benzo[d]imidazol-2-yl)-1-(cyclopropylmethyl)-1H-indol-7-yl)piperidine-1-carboxylate] | 27 nM
COc1cc(C(=O)N2C[C@H](N)C[C@@H](F)C2)cc2nc(-c3cc4cccc(C5CCN(C(C)=O)CC5)c4n3CC3CC3)n(C)c12 [Example 205, 1-(4-(2-(5-((3R,5R)-3-amino-5-fluoropiperidine-1-carbonyl)-7-methoxy-1-methyl-1H-benzo[d]imidazol-2-yl)-1-(cyclopropylmethyl)-1H-indol-7-yl)piperidin-1-yl)ethan-1-one] | 41 nM
COc1cc(C(=O)N2C[C@H]3CC[C@@H]2[C@@H]3N)cc2nc(-c3cc4cccc(C5CN(C(=O)Cc6ccncc6)C5)c4n3CC3CC3)n(C)c12 [Example 73, 1-[3-(2-{5-[(1R,4R,7R)-7-amino-2-azabicyclo[2.2.1]heptane-2-carbonyl]-7-methoxy-1-methyl-1H-1,3-benzodiazol-2-yl}-1-(cyclopropylmethyl)-1H-indol-7-yl)azetidin-1-yl]-2-(pyridin-4-yl)ethan-1-one] | 5 nM

same assay, conditions: human PAD4, rapid-fire mass spectrum (RFMS) assay; 5 nM hPAD4, 250 μM BAEE; read-out: hPAD4 RFMS IC50

SMILES | IC50
COc1cc(C(=O)N2C[C@H]3CC[C@@H]2[C@@H]3N)cc2nc(-c3cc4cccc(CCCO)c4n3CC3CC3)n(C)c12 [Example 2, ((1R,4R,7R)-7-amino-2-azabicyclo[2.2.1]heptan-2-yl)(2-(1-(cyclopropylmethyl)-7-(3-hydroxypropyl)-1H-indol-2-yl)-7-methoxy-1-methyl-1H-benzo[d]imidazol-5-yl)methanone] | 32 nM
